| Structure (SMILES) | melting point |
| --- | --- |
| Cn1nc(Cc2ccc([N+](=O)[O-])cc2)oc1=O | 115 to 116 °C |
| CCOC(=O)c1cc2c(OC[C@@H](O)CN3CCC(c4ccc5ccccc5c4)CC3)cccc2[nH]1 | 115 to 117 °C |
| COC(=O)CN(C1(C(=O)C2CCCCC2)C=C(Cl)C=CC1)S(=O)(=O)c1ccc(OC)cc1 (stereo unspecified) | 115 to 116 °C |
| COC(=O)c1ccccc1S(=O)(=O)NC(=O)n1nc(Cl)n(N(C)C)c1=O | 146 °C |
| CC1(C(O)(Cc2ccc(F)cc2)Cn2cncn2)CC1(F)F (stereo unspecified) | 114 °C |
| O=C1c2ccccc2C(=O)N1CC#Cc1ccc(Cl)cc1C(O)c1ccccc1F (stereo unspecified) | 158 to 160 °C |
| Clc1ccc(C2CN3C(=N2)Sc2ccccc23)cc1 (stereo unspecified) | 143 °C |
| COc1ccc2oc(C(=O)OCC(C)(C)C(=O)C(C)(C)C)cc2c1 | 81.5 to 82.5 °C |
| c1ccc2c(c1)C[C@@H]1c3ccccc3N[C@H]21 (relative stereo) | 107 °C |
| CCCCNC(=O)CNC(=O)CN1CCCC1=O | 105 to 106 °C |
| CN=C(NC#N)N1CC1 | 130 to 132 °C |
| CCOC(=O)C1=C(C(F)(F)F)Nc2n[nH]c(C)c2C1c1ccccc1Cl (stereo unspecified) | 165 to 168 °C |
| CCCn1nc(C(C)C)c(C(=O)OCc2ccccc2C(=O)c2ccccc2)c1Cc1ccc(-c2ccccc2S(=O)(=O)NC(C)(C)C)c(F)c1 | 49 to 51 °C |
| Cc1cc(S)n2nc(C(=O)O)nc2n1 | 215 to 217 °C |
| NC(=O)c1nccn1C1Sc2ccccc2C1=O (stereo unspecified) | 180 °C |
| N#Cc1c(Cl)sc2[nH]c(=O)c(=O)[nH]c12 | > 250 °C |
| NCCc1ccc(Cl)c(Cl)c1CCO | 79 to 80 °C |
| CC(C)(C)C(=O)COc1ccc(Cl)cc1 | 58 °C |
| O=C1c2c(Cl)cccc2-n2cnc(C(=O)n3ccnc3)c2[C@@H]2CCCN12 | 240 to 242 °C |
| C=C1N(c2ccccc2)C(=O)OC12CCNCC2 | 185 to 186 °C |
| CCOc1ccc(S(=O)(=O)N2CCN(CC)CC2)cc1C#N | 86 to 88 °C |
| COc1ccc(CC(=O)O)c(OCCc2ccccc2)c1 | 107 to 108 °C |
| O=C1c2c(Cl)cccc2-n2cnc(-c3nc(C4CCC4)no3)c2[C@@H]2CCCN12 | 183 to 185 °C |
| O=C(NCCN1CCN(c2ncccn2)CC1)NC12CC3CC(CC(C3)C1)C2 | 170 to 171 °C |
| O=c1n(CCC#Cc2cccc(CF)n2)nc2ccccn12 | 106 to 107 °C |
| CC(C)n1c(=O)sc2cc([N+](=O)[O-])ccc21 | 138 to 142 °C |

| Structure (SMILES) | melting point |
| --- | --- |
| CCOC(=O)C1=C(COCCn2c(C)nc3ccccc32)NC(C)=C(C(=O)NC(C)(C)C)C1c1ccccc1Cl (stereo unspecified) | 157 to 161 °C |
| O=C(Nc1ccc(C(F)(F)F)cc1)N[C@@H](Cc1ccccc1)C(=O)OCc1ccccc1 | 155 to 157 °C |
| CN(C)CC1CCn2c(c(C3=C(c4csc5ccccc45)C(=O)NC3=O)c3ccccc32)C1 (stereo unspecified) | 285 to 286 °C |
| Cc1cc(N(C)C)c2c(N)c(C(N)=O)sc2n1 | 167 to 170 °C |
| c1ccc(-c2ncnc3sc4c(c23)CCCC4)cc1 | 135 to 137 °C |
| CCCCCCCSc1nn2c(=O)c(C)c(F)nc2s1 | 78 to 91 °C |
| O=C(Nc1ccccc1Cl)N1CCc2cc(S(=O)(=O)N3CCN(c4cccc(Cl)c4)CC3)ccc21 | 205 to 206 °C |
| N#Cc1nc2cc3c(cc2[nH]1)OC(F)(Cl)C(F)(Cl)O3 (stereo unspecified) | > 230 °C |
| N#Cc1cc(O)ccc1[N+](=O)[O-] | 200 to 202 °C |
| Cc1[nH]c(C=O)c(C)c1-c1nc2ccc(C(=O)c3ccccc3)cc2[nH]1 | 253 to 255 °C |
| CC#CCOc1cc(Oc2c(F)cc(F)cc2F)ncn1 | 60.3 °C |
| CNC(=O)Nc1cccc(OC(=O)N(CCC#N)c2ccccc2)c1 | 147 °C |
| [N-]=[N+]=NCCCn1ccc(-c2ccc(F)cc2)c1-c1ccncc1 | 219 to 222 °C |
| Nc1cc(Cl)c(S)cc1S(N)(=O)=O | 192 to 195 °C |
| C(=C\c1cccs1)/c1ncon1 | 78 °C |
| Cc1cc(I)sc1COCP(=O)(OC(C)C)OC(C)C | 39 to 40 °C |
| O=Cc1ccc(O)cn1 | 134 to 135 °C |
| CCCCCCCCOc1ccc(-c2ncc(O)cn2)c(F)c1F | 84 to 85 °C |
| CC(C)[C@H](NC(=O)CCC(=O)c1ccccc1)C(=O)O | 118 to 120 °C |
| COc1ccc2c(c1)Sc1c(cc(OC)c(OC(C)=O)c1Br)N2 | 201 to 203 °C |
| CC(=O)c1cccc(C)c1NC(=O)CCl | 88 to 89 °C |
| CC(=O)OC[C@@](O)(c1ccc(F)cc1F)[C@H](C)c1ccncn1 | 102 to 104 °C |
| COC(=O)C(CCCBr)Oc1cc2c(cc1[N+](=O)[O-])CCC2 (stereo unspecified) | 154 to 155 °C |
| Cc1ccc(N2C(=O)C(O)=C(C(=O)c3ccc(C(C)C)cc3)C2c2ccc(N(C)C)cc2)nn1 (stereo unspecified) | 283 to 286 °C |
| COC(=O)c1ccc(Cc2cc3cc(Cl)ccc3n2S(C)(=O)=O)cc1 | 143 °C |
| CCCCC(=O)Nc1cccc(-n2nc(CCCC)n(Cc3ccc(-c4ccccc4S(=O)(=O)NC(=O)c4ccccc4Cl)cc3)c2=O)c1 | 102 to 105 °C |

| Structure (SMILES) | melting point |
| --- | --- |
| CC(=O)OC1CCC2(C)C(=CCC3C2CCC2(C)C(n4ncnn4)=CCC32)C1 (stereo unspecified) | 155 to 156 °C |
| C=Cc1cc(NC(=O)N2CCN(c3cc(OC)cc(OC)c3)CC2)c(OC)nc1C | 140 to 141 °C |
| COc1cc(N=C(NC#N)Oc2ccccc2)cc(C(F)(F)F)c1 | 168 to 170 °C |
| CC(=O)N1CN(C(=O)c2c(F)cccc2F)C(=O)N(c2ccc(Cl)cc2)C1 | 171 to 172 °C |
| COc1cc(OCCCN2CCC(c3n[nH]c4cc(F)ccc34)CC2)ccc1C(C)=O | 202 to 204 °C |
| CC(C)(C)OC(=O)NCC1(CC#N)CCCCC1 | 54 to 58 °C |
| CNCC(O)COc1ccc(C#N)cc1 (stereo unspecified) | 100 to 102 °C |
| C=CC[C@@H]1C[C@@H](COc2ccc(-c3ccc(C#N)cc3)cc2)N(Cc2ccc(OC)cc2)C1=O | 120 to 122 °C |
| COc1cc(OC)nc(NC(=O)NS(=O)(=O)c2ccccc2S(=O)(=O)NC(=O)Nc2nc(OC)cc(OC)n2)n1 | 201 to 203 °C |
| O=C(OCCOc1ccc2ncnn2n1)N1CCN(C(c2ccccc2)c2ccccc2)CC1 | 157 to 159 °C |
| CCOC(=S)SCCC(=O)N1CCC[C@H]1C(=O)O | 94 to 95 °C |
| COCCCn1nnnc1-c1cc(-c2cc(C(C)C)ccc2OC)c(O)cc1O | 174 to 176 °C |
| COC(=O)c1cccc(OC)c1OS(=O)(=O)NC(=O)Nc1nc(C)cc(Cl)n1 | 140 to 143 °C |
| CC(C)(C)c1ccc(Oc2nc(-c3ccc(Cl)cc3)c(CCC(=O)O)o2)cc1 | 166 to 167 °C |
| CCOC(=O)C1=C(C)NC(N=CN2CCCCC2)=C(C(=O)OCC)C1c1ccccc1Cl (stereo unspecified) | 145 °C |
| Cn1cc(-c2cccc(Cl)c2)c(=S)c(-c2cccc(Cl)c2)c1 | 210 to 212 °C |
| CC(C)(C)OC(=O)N1CC=C(c2ccc3[nH]c(=O)[nH]c3c2)CC1 | 244 to 245 °C |
| CCOP(=O)(OCC)Oc1cc(C(F)(F)F)nc(N(C)C)n1 | 22 to 24 °C |
| COc1ccc2cccc3c2c1CCC3CNC(C)=O (stereo unspecified) | 126 °C |
| CC(=O)CN1C(=O)C(NC(=O)Nc2cccc(C)c2)N=C(C)c2cccc(C)c21 (stereo unspecified) | 126 to 128 °C |
| Cn1cnc(COc2nc3c(cc2C(C)(C)C)nnn3-c2ccccc2F)n1 | 127 to 129 °C |
| O=c1n(CCCC2CCCC2)ccn1-c1ccc([N+](=O)[O-])cc1 | 105 to 107 °C |
| O=C(c1ccccc1O)c1ccccc1Br | 78 °C |
| Cc1nc(C#CCCc2nc3ccccc3o2)cn1C | 117 to 119 °C |
| CCNC(=O)N1CC(Oc2ccc(C(F)(F)F)cc2)C1 | 94 to 96 °C |
| CCOC(=O)C1=NNc2ccc(-c3ccc(Cl)cc3)cc2C1 | 254 to 256 °C |

| Structure (SMILES) | melting point |
| --- | --- |
| CCn1c(=O)ccc2cnc(Nc3ccc(N4CCOCC4)cc3)nc21 | 227 to 228 °C |
| CC(=O)Nc1ccc2c(c1)C(=O)N(CCO)CO2 | 155 to 156 °C |
| O=C(c1ccccc1F)c1cc(Cl)ccc1CCCN1C(=O)c2ccccc2C1=O | 98 to 99 °C |
| CCc1c(OC)nc2nc(-c3nc(C)no3)cn2c1C | 204 to 205 °C |
| CN(c1cc(OC(F)(F)F)cc2cc(C3=NCC(CN4CCOCC4)S3)[nH]c12)S(=O)(=O)c1cccs1 (stereo unspecified) | 165 to 166 °C |
| COc1ccc(-c2c(Cl)c(CN3C(=O)CCC3=O)nc3sc4c(c23)CCC(O)C4)cc1 (stereo unspecified) | 218 to 220 °C |
| Cc1cccc(COc2cccc(OCc3ccc4cc(F)cc(F)c4n3)c2)c1OCC(=O)O | 137 to 141 °C |
| COCc1cccc2c1ccn2S(=O)(=O)c1ccc(C)cc1 | 85.5 to 89 °C |
| COc1ccc(C2CC(c3ccccc3)=NN2c2ccc(C(=O)O)cc2)cc1 (stereo unspecified) | 226 °C |
| COC(C)(C)[C@H]1CCCN1NC(=O)Nc1cccc2c1C(=O)c1c-2n[nH]c1-c1ccc(N2CCNCC2)cc1 | 218 °C |
| N#CC1=C(Nc2ccc(F)cc2)CCC1 | 100 to 102 °C |
| NC(=O)c1c(Cl)c(-c2ccccc2)n2c1CN(S(=O)(=O)c1ccc(-c3ccon3)s1)CC2 | 186 to 190 °C |
| CS(=O)(=O)c1ccc(C(CC2CCCC2)C(=O)Nc2ccc(Br)cn2)cc1[N+](=O)[O-] (stereo unspecified) | 80 to 83 °C |
| CC(C)c1cccc(C(C)C)c1NC(=O)CCl | 146 to 148 °C |
| C=CCNc1nc(-c2ccc(=O)n(C(C)C)n2)c(-c2ccccc2)nc1N | 208 to 210 °C |
| COc1cc(C(=O)NCC(=O)O)ccc1NS(=O)(=O)c1sc2ccc(Cl)cc2c1C | 282 to 285 °C |
| c1ccc(OCCSCc2nnc(-c3ccc4cc(CN5CCCCC5)ccc4c3)o2)cc1 | 93 to 94 °C |
| COc1cccc(-c2cn3cccc(C=O)c3n2)c1 | 71 to 73 °C |
| COC(CCSCC=O)=NNS(=O)(=O)c1ccc(C)cc1 | 94 to 96 °C |
| Cc1onc(C(=O)c2ccccc2Cl)c1N | 75 to 78 °C |
| O=C([C@@H](Cc1ccc(Cl)cc1)NC1CCOCC1)N1CCC(Cn2cncn2)(C2CCCCC2)CC1 | 75 °C |
| NC(N)=NC(=O)Cc1c(-c2ccccc2Cl)csc1-c1ccc(OCCc2cn[nH]c2)cc1 | 71 to 72 °C |
| O=C1C(c2ccccc2)=C(c2ccccc2)C(=O)N1CCc1ccccc1F | 111 to 112 °C |

From a melting point compilation (Tetko et al.; mined from patent text by program, amines drawn as free bases though some values may be those of a salt)
